Measured values: patent publication US20210206810A1, “Detection of Optimal Recombinants Using Fluorescent Protein Fusions” (priority 2019, published 2021)

Assays:
[1] = test system: methicillin resistant Staphylococcus aureus (MRSA); conditions: microbial species including MRSA; cited from earlier work
Micrococcus luteus = assay: Determination of minimum inhibitory concentration (MIC); assay type: cell-based; conditions: visual inspection after 24 hours at 37° C. in MHB; tested 0.25 to 32 μg/mL

Substance: epidermicin-N101
- cytotoxicity to microbial species [1]: highly cytotoxic
- minimum inhibitory concentration (growth of Micrococcus luteus) (Micrococcus luteus): 2 µg/mL
